Measured values taken from patent US5416118A, “Bicyclic amides as inhibitors of acyl-coenzyme A: cholesterol acyl transferase” (Schering Corporation, priority 1993, dated 1995).

What was measured:
cholesteryl esters = experiment: In Vivo Assay of Hypolipidemic Agents Using the Hyperlipidemic Hamster; conditions: Mesocricetus auratus, po, 168 h, oral gavage once daily, 7 days, versus control, read-out: % Reduction in cholesteryl esters; for change in vivo at 50 mg/kg: 50 mpk; for change in vivo at 100 mg/kg: 100 mpk
Description: In Vivo Assay of Hypolipidemic Agents Using the Hyperlipidemic Hamster
Hamsters are separated into groups of six and given a control cholesterol diet (Pudna Chow #5001 containing 0.5% cholesterol) for seven days. Diet consumption is monitored to determine dietary cholesterol exposure in the face of test compounds. The animals are dosed with the test compound once daily beginning with the initiation of diet. Dosing is by oral gavage of 0.2 mL of corn oil alone (control group) or solution (or suspension) of test compound in corn oil. All animals moribund or in poor physical condition are euthanized. After seven days, the animals are anesthetized by […] of ketamine and sacrificed by decapitation. Blood is collected into vacutainer tubes containing EDTA for plasma lipid analysis and the liver excised for tissue lipid analysis. Data is reported as percent reduction of lipid versus control.
(§1) Using the assay methods described above, the compounds of Examples 1-9 were tested for in vitro ACAT inhibitory activity and for the ability to lower the level of cholesteryl esters in vivo.

ACAT = ACAT Assay (in vitro); format: biochemical; conditions: dose = 10 μM; rat liver microsomes
Description: This assay measures the activity of ACAT by measuring the ACAT-mediated transfer of tritiated oleic acid from acyl-CoA to cholesterol to give labelled cholesterol oleate. Rat liver microsomes are used as the source of ACAT. Assays are performed in round bottom microtiterplates using a total incubation volume of 50 μL. Each incubation well receives 10 μL assay buffer (0.5M KHPO4, 10 μM dithiothreitol, pH 7.4), 7.5 μL of 40 mg/mL BSA (Bovine Serum Albumin) and 12.5 μg of microsomal protein. The test compound (in sufficient amount to bring the final concentration to from 0.1 to 25 μM), reference compound, or vehicle control is added and the final volume brought to 47 μL. The microtiterplate is then floated on the surface of a 37° C. water bath for fifteen minutes. Incubations are started by the addition of 3 μL ^3 H-acyl CoA (1 μCi/well, final concentration of 10 μM acyl CoA). The plate is then returned to the water bath for 15 minutes. The incubations are then terminated by application of 15 μL from each incubation to individual lanes on a thin layer plate (Silica Gel GF 20×20 cm). Standards are applied to several lanes so that the cholesterol ester band can be identified. After drying, the plates are eluted with 90:10:1 petroleum ether:ether:HOAc. The standards are visualized via iodine vapor, and the regions corresponding to cholesterol ester are scraped into 7 mL scintillation vials. 4 mL of scintillant are added to each vial, and the radioactivity quantified. Background count is determined by the boiled controls. Full activity is determined by activity in the presence of vehicle. The percent inhibition is calculated by subtracting the background from both control and test samples, and the test value is calculated as a percentage of the control. For IC50 determinations, the inhibition is plotted against drug doses on a log scale and the concentration at which 50% inhibition is obtained is determined.
as §1

Row | Structure (SMILES) | change in vivo at 50 mg/kg (cholesteryl esters) | ACAT % Inhibition (ACAT) | further results
1 | O=C(N[C@@H]1c2cc(O)ccc2CC[C@@H]1c1ccc(O)cc1)C(c1ccccc1)c1ccccc1 (relative stereo) [Example 3V] | 0% |  | 
2 | COc1ccc2c(c1)[C@H](NC(=O)C(c1ccccc1)c1ccccc1)[C@@H](c1ccccc1)C2 (relative stereo) [Example 2T] |  | 15% | 
3 | O=C(N[C@@H]1c2cc(O)ccc2CC[C@H]1c1ccc(O)cc1)C(c1ccccc1)c1ccccc1 (relative stereo) [Example 3U] | -97% |  | change in vivo at 10 mg/kg (cholesteryl esters; 10 mpk): -60%; change in vivo at 30 mg/kg (cholesteryl esters; 30 mpk): -86%
4 | O=C(N[C@@H]1c2ccccc2CC[C@H]1c1ccc(O)cc1)N(c1ccccc1)c1ccccc1 (relative stereo) [Example 3I] | -16% | 99% | 
5 | COc1ccc([C@@H]2CCc3ccccc3[C@@H]2NC(=O)C(c2ccccc2)c2ccccc2)cc1 (relative stereo) [Example 1, cis-N-[-2-(4'-methoxyphenyl)-1,2,3,4-tetrahydronaphthalen-1-yl]-α-phenylbenzeneacetamide] | 0% |  | 
6 | COc1ccc2c(c1)C[C@@H](c1ccccc1)[C@H]2NC(=O)C(c1ccccc1)c1ccccc1 (relative stereo) [Example 2R] | 0% | 75% | 
7 | CCCCCCCC/C=C\CCCCCCCC(=O)N[C@H]1c2ccccc2OC[C@H]1c1ccccc1 (relative stereo) [Example 2N] |  | 85% | change in vivo at 100 mg/kg (cholesteryl esters): 0%
8 | COc1ccc([C@H]2CCc3ccccc3[C@@H]2NC(=O)C(c2ccccc2)c2ccccc2)cc1 (relative stereo) [Example 1G] | 0% |  | 
9 | O=C(N[C@@H]1c2ccccc2C[C@@H]1c1ccc(O)c(Br)c1)C(c1ccccc1)c1ccccc1 (single isomer, unassigned) [Example 7, (+)-cis-N-[2-(3'-bromo-4'-hydroxyphenyl]indanyl]-α-phenylbenzeneacetamide] | -40% | 100% | 
10 | O=C(N[C@H]1c2ccccc2C[C@@H]1c1ccc([N+](=O)[O-])cc1)C(c1ccccc1)c1ccccc1 (relative stereo) [Example 2J] |  | -12% | 
11 | COc1cccc([C@@H]2Cc3ccccc3[C@@H]2NC(=O)C(c2ccccc2)c2ccccc2)c1 (relative stereo) [Example 2A] | 0% | 99% | 
12 | O=C(N[C@@H]1c2cc(O)ccc2CC[C@H]1c1ccccc1)C(c1ccccc1)c1ccccc1 (relative stereo) [Example 3Q] | -78% | 94% | 
13 | O=C(N[C@H]1c2ccccc2C[C@@H]1c1cccc([N+](=O)[O-])c1)C(c1ccccc1)c1ccccc1 (relative stereo) [Example 2D] |  | 90% | 
14 | Cc1cc([C@H]2Cc3ccccc3[C@H]2NC(=O)C(c2ccccc2)c2ccccc2)ccc1O (single isomer, unassigned) [Example 9, (+)-cis-N-[2-(4'-hydroxy-3'-methylphenyl)indanyl]-α-phenylbenzeneacetamide] | -66% | 98% | 
15 | O=C(N[C@@H]1c2ccccc2C[C@H]1c1ccc(O)cc1)C(c1ccccc1)c1ccccc1 (relative stereo) [Example 3E] | -52% | 99% | 
16 | CCCCCCCC/C=C\CCCCCCCC(=O)N[C@H]1c2ccccc2CC[C@@H]1c1ccccc1 (relative stereo) [Example 2M] |  | 99% | change in vivo at 100 mg/kg (cholesteryl esters): 0%
17 | O=C(N[C@@H]1c2ccccc2CC[C@H]1c1cccc(O)c1)C(c1ccccc1)c1ccccc1 (relative stereo) [Example 3D] | 0% | 98% | 
18 | O=C(N[C@@H]1c2ccc(O)cc2CC[C@H]1c1ccccc1)C(c1ccccc1)c1ccccc1 (relative stereo) [Example 3N] | 0% | 92% | 
19 | COc1cccc([C@H]2Cc3ccccc3[C@@H]2NC(=O)C(c2ccccc2)c2ccccc2)c1 (relative stereo) [Example 2B] |  | 94% | 
20 | COc1cccc([C@H]2CCc3ccccc3[C@@H]2NC(=O)C(c2ccccc2)c2ccccc2)c1 (relative stereo) [Example 1D] | 0% |  | 
21 | O=C(N[C@@H]1c2ccccc2C[C@@H]1c1ccc(O)cc1)C(c1ccccc1)c1ccccc1 (single isomer, unassigned) [Example 3BB] |  | < 0% | 

Row | Structure (SMILES) | change in vivo at 50 mg/kg (cholesteryl esters) | ACAT % Inhibition (ACAT) | further results
22 | Nc1ccc([C@H]2CCc3ccccc3[C@@H]2NC(=O)C(c2ccccc2)c2ccccc2)cc1 (relative stereo) [Example 2P] |  |  | change in vivo at 25 mg/kg (cholesteryl esters; 25 mpk): -15%
23 | CCCCCCCC/C=C\CCCCCCCC(=O)N[C@H]1c2ccccc2CC[C@H]1c1ccccc1 (relative stereo) [Example 2L] |  | 66% | 
24 | COc1ccc([C@H]2CCc3ccc(OC)cc3[C@@H]2NC(=O)C(c2ccccc2)c2ccccc2)cc1 (relative stereo) [Example 1R] | 0% |  | 
25 | O=C(N[C@@H]1c2cc(O)ccc2CC[C@H]1c1ccccc1)C(c1ccccc1)c1ccccc1 (single isomer, unassigned) [Example 3Y] |  | 83% | 
26 | COc1ccc2c(c1)[C@H](NC(=O)C(c1ccccc1)c1ccccc1)[C@H](c1ccccc1)C2 (relative stereo) [Example 2Q] |  | 16% | 
27 | O=C(N[C@@H]1c2ccc(O)cc2C[C@H]1c1ccccc1)C(c1ccccc1)c1ccccc1 (relative stereo) [Example 3L] |  | 93% | 
28 | Nc1ccc([C@@H]2Cc3ccccc3[C@H]2NC(=O)C(c2ccccc2)c2ccccc2)cc1 (relative stereo) [Example 5, trans-N-[2-(4'-aminophenyl)indanyl]-α-phenylbenzeneacetamide] |  | 94% | 
29 | COc1ccc([C@H]2CCCc3ccccc3[C@@H]2NC(=O)C(c2ccccc2)c2ccccc2)cc1 (relative stereo) [Example 1I] |  | 63% | 
30 | O=C(N[C@@H]1c2cccc(O)c2CC[C@H]1c1ccccc1)C(c1ccccc1)c1ccccc1 (relative stereo) [Example 3S] | 0% |  | 
31 | COc1ccccc1[C@H]1CCc2ccccc2[C@@H]1NC(=O)C(c1ccccc1)c1ccccc1 (relative stereo) [Example 1B] | 21% |  | 
32 | O=C(N[C@H]1c2ccccc2CC[C@@H]1c1ccncc1)C(c1ccccc1)c1ccccc1 (relative stereo) [Example 1J] | -39% |  | 
33 | O=C(N[C@H]1c2ccccc2C[C@H]1c1ccc([N+](=O)[O-])cc1)C(c1ccccc1)c1ccccc1 (relative stereo) [Example 2I] |  | 51% | 
34 | O=C(N[C@@H]1c2ccccc2CCC[C@@H]1c1ccc(O)cc1)C(c1ccccc1)c1ccccc1 (relative stereo) [Example 3R] | 0% |  | 
35 | O=C(N[C@@H]1c2c(O)cccc2C[C@@H]1c1ccccc1)C(c1ccccc1)c1ccccc1 (relative stereo) [Example 3X] |  | 97% | 
36 | O=C(N[C@@H]1c2cc(O)ccc2CC[C@H]1c1ccccc1)C(c1ccccc1)c1ccccc1 (single isomer, unassigned) [Example 3Z] |  | 92% | 
37 | O=C(N[C@@H]1c2c(O)cccc2CC[C@H]1c1ccccc1)C(c1ccccc1)c1ccccc1 (relative stereo) [Example 3CC] | -20% |  | 
38 | O=C(N[C@@H]1c2ccccc2CCC[C@H]1c1ccc(O)cc1)C(c1ccccc1)c1ccccc1 (relative stereo) [Example 3J] | -61% |  | 
39 | O=C(N[C@@H]1c2cccc(O)c2CC[C@@H]1c1ccccc1)C(c1ccccc1)c1ccccc1 (relative stereo) [Example 3T] | 0% |  | 
40 | O=C(N[C@@H]1c2ccccc2CC[C@H]1c1ccccc1O)C(c1ccccc1)c1ccccc1 (relative stereo) [Example 3A] | 0% |  | 
41 | CCCCCCCC/C=C\CCCCCCCC(=O)N[C@H]1c2ccccc2OC[C@@H]1c1ccccc1 (relative stereo) [Example 2O] |  | 87% | 
